The supplement of paper PMC10702517
± gives the standard deviation.

Columns and labels:
[1] = chemical recovery from spiked human plasma; higher = better extraction; conditions: pooled human plasma
[2] = chemical recovery into PDMS from spiked human plasma; higher = better extraction; conditions: pooled human plasma, extraction method: PES with PDMS
[3] = chemical recovery by SPE of plasma after PDMS sampling; higher = better extraction; conditions: pooled human plasma, extraction method: HLB SPE of plasma after PES
[4] = extraction method: PES+SPE (3 d PDMS equilibration then HLB SPE)
[5] = extraction method: SPE only (HLB 96-well)
[6] = extraction method: SPE only (HLB 96-well), PES comparison experiment
[7] = extraction method: solvent precipitation (ACN + hexane)
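Wherever chemical recovery by SPE of plasma after PDMS sampling is given: over 400 spiked chemicals quantified by LC-HRMS or GC-HRMS via internal standard calibration, recovery relative to spike mix added to unspiked plasma extract to correct matrix effects.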

Row | Compound | chemical recovery [1, 4] [%] | chemical recovery [1, 5] [%] | chemical recovery [1, 6] [%] | chemical recovery [1, 7] [%] | chemical recovery into PDMS ([2]; equilibration time (d): 6) [%] | chemical recovery into PDMS ([2]; equilibration time (d): 1) [%] | chemical recovery into PDMS ([2]; equilibration time (d): 3) [%] | chemical recovery by SPE of plasma ([3]; equilibration time (d): 1) [%] | chemical recovery by SPE of plasma ([3]; equilibration time (d): 3) [%] | chemical recovery by SPE of plasma ([3]; equilibration time (d): 6) [%]
1 | O=C(O)CCC(=O)c1ccc(F)cc1 [4-Fluorobenzoylpropionic acid] | 47.1 ± 4.1 | 42.5 ± 2 | 59.7 ± 7.3 | 64 ± 7.2 | 0.0611 ± 0.11 |  | 0.0416 ± 0.072 | 60.4 ± 6.4 | 60.3 ± 4.6 | 56.6 ± 5.1
2 | O=[N+]([O-])c1cc[n+]([O-])c2ccccc12 [4-Nitroquinoline-1-oxide] |  |  | 42.3 ± 8.4 |  | 17 ± 0.8 | 14.2 ± 0.49 | 14.7 ± 1.4 | 15.1 ± 2.7 | 18.4 ± 2.5 | 13.5 ± 1.6
3 | C[C@]12CCC(=O)C=C1CC[C@@H]1[C@@H]2CC[C@@]2(C)[C@H]1CC[C@]2(C)O [17alpha-Methyltestosterone] |  |  |  |  | 37.6 ± 0.76 | 34.6 ± 2.1 | 36.4 ± 2.9 | 7.99 ± 6.9 | 12.4 ± 1.8 | 7.08 ± 1.2
4 | CC(C1CC1)C(O)(Cn1cncn1)c1ccc(Cl)cc1 (stereo not drawn) [Cyproconazole] |  |  |  |  | 41 ± 0.84 | 37.7 ± 1.8 | 41.6 ± 3.6 | 2.91 ± 0.36 | 2.32 ± 0.46 | 1.25 ± 0.088
5 | CO/N=C(/C1=NOCCO1)c1ccccc1Oc1ncnc(Oc2ccccc2Cl)c1F [Fluoxastrobin] |  |  |  |  | 47.2 ± 5.7 | 45.4 ± 3.9 | 50.3 ± 4.7 | 0.73 ± 1.3 | 0.629 ± 1.1 | 0.277 ± 0.48
6 | ClC1=C(Cl)C2(Cl)C3C4OC4C(Cl)C3C1(Cl)C2(Cl)Cl (stereo not drawn) [Heptachlorepoxide] |  |  |  |  |  |  | 99.4 ± 13 | 1.72 ± 1.8 | 2.34 ± 0.82 | 1.89 ± 0.21
7 | Cl[C@H]1[C@H](Cl)[C@@H](Cl)[C@@H](Cl)[C@H](Cl)[C@H]1Cl [gamma-HCH] |  |  | 9.76 ± 0.99 | 26.2 ± 8.1 | 58.6 ± 18 |  | 57.4 ± 18 |  |  | 

Now from value to compound, other results behind:

Row | chemical recovery [1, 4] [%] | chemical recovery [1, 5] [%] | chemical recovery [1, 6] [%] | chemical recovery [1, 7] [%] | chemical recovery into PDMS ([2]; equilibration time (d): 6) [%] | chemical recovery into PDMS ([2]; equilibration time (d): 1) [%] | Compound | chemical recovery into PDMS ([2]; equilibration time (d): 3) [%] | chemical recovery by SPE of plasma ([3]; equilibration time (d): 1) [%] | chemical recovery by SPE of plasma ([3]; equilibration time (d): 3) [%] | chemical recovery by SPE of plasma ([3]; equilibration time (d): 6) [%]
8 |  |  | 19.6 ± 3.7 |  | 108 ± 43 | 94.4 ± 32 | c1cc2c3c(c1)ccc1cccc(c13)C2 [4H-Cyclopenta(def)phenanthrene] | 93.2 ± 14 | 1.81 ± 1.4 | 2 ± 0.34 | 1.85 ± 0.12
9 | 44.7 ± 2.5 | 41.8 ± 2.6 | 52.8 ± 6.1 | 59.3 ± 5 | 1.34 ± 0.43 | 0.3 ± 0.043 | Clc1ccc2[nH]nnc2c1 [5-Chlorobenzotriazole] | 0.905 ± 0.21 | 55.2 ± 9.2 | 55.2 ± 5 | 52.3 ± 6.8
10 | 54.6 ± 2.9 | 46.3 ± 3 | 51.7 ± 8.2 | 58.1 ± 3.9 | 8.16 ± 2 | 3.14 ± 0.15 | Cc1ccc2[nH]nnc2c1 [5-Methyl-1H-benzotriazole] | 6.47 ± 1.2 | 45.5 ± 4.2 | 42.2 ± 5.6 | 36 ± 2.7
11 |  |  |  |  | 77.5 ± 5.2 | 70.5 ± 4 | c1ccc2c(c1)=c1ccc3c4c(ccc=2c14)=c1ccccc1=3 [Indeno(1,2,3-cd)fluoranthene] | 79.7 ± 9.8 |  |  | 0.409 ± 0.71
12 |  |  |  |  | 30.5 ± 2.2 | 23.3 ± 2.5 | C=CC[C@@H]1/C=C(\C)C[C@H](C)C[C@H](OC)[C@H]2O[C@@](O)(C(=O)C(=O)N3CCCC[C@H]3C(=O)O[C@H](/C(C)=C/[C@@H]3CC[C@@H](O)[C@H](OC)C3)[C@H](C)[C@@H](O)CC1=O)[C@H](C)C[C@@H]2OC [Tacrolimus] | 27.6 ± 2.7 | 5.46 ± 2.7 | 1.87 ± 3.2 | 
